Assays:
[1] = molecular target: T1, SjGST (Schistosoma japonicum, UniProt P08515); test: CDNB conjugation assay; type: biochemical; settings: aniline up to 20 mM
[2] = molecular target: T1, SjGST; test: SjGST-templated acylhydrazone DCL, amplification by HPLC; type: binding; settings: DCL synthesis in the presence of a large excess of the inhibitor

T1 sequence (P08515 whole entry): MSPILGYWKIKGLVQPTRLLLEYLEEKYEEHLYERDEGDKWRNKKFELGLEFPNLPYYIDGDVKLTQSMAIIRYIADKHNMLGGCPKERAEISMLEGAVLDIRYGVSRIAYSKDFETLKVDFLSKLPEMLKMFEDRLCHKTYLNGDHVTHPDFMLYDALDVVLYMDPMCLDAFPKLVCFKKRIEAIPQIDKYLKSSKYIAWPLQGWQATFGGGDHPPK

Structure (SMILES)	SjGST GSH conjugation activity in the presence of the additive [1]	effect on DCL component amplification [2]
Nc1ccccc1 [aniline]	retained GSH conjugation activity	
C=C(CC)C(=O)c1ccc(OCC(=O)O)c(Cl)c1Cl [ethacrynic acid]		completely suppressed
